Assay results taken from patent publication US20070049564A1 (Wyeth, priority 2005, published 2007).
Like-named read-outs stand apart in the source and are kept apart here.

How the values were obtained:
E. coli GC 2270 = assay: MIC, broth microdilution; settings: Escherichia coli
Staph. = assay: Range of MIC for Staph. strains, including MRSA; settings: Staphylococcus aureus
S. typhimurium GC 2172 = assay: MIC, broth microdilution; settings: Salmonella enterica, TYPHIMURIUM
E. faecium GC 4556 = assay: MIC, broth microdilution; settings: Enterococcus faecium
E. coli GC 2233 = assay: MIC, broth microdilution; settings: Escherichia coli
E. coli = assay: Range of MIC for E. coli strains; settings: Escherichia coli
E. coli GC 2235 = assay: MIC, broth microdilution; settings: Escherichia coli
Description: Antimicrobial susceptibility testing. The in vitro activities of the antibiotics are determined by the broth microdilution method as recommended by the National Committee for Clinical Laboratory Standards (NCCLS) (1). Mueller-Hinton II broth (MHBII)(BBL Cockeysville, Md.) is the medium employed in the testing procedures. Microtiter plates containing serial dilutions of each antimicrobial agent are inoculated with each organism to yield the appropriate density (10^5 CFU/ml) in a 100 μl final volume. The plates are incubated for 18-22 hours at 35° C. in ambient air.
Representative compounds were first incubated in mouse serum for an hour prior to the in vitro testing against a panel of selected gram-positive and gram-negative bacteria strains. All compounds were also pre-incubated in water for an hour prior to testing as control. Representative compounds of Formula I were incubated in human serum prior to MIC determination.

S. aureus GC 6335 = assay: MIC, broth microdilution; settings: Staphylococcus aureus
E. coli GC 1073 = assay: MIC, broth microdilution; settings: Escherichia coli
E. faecalis GC 2265 = assay: MIC, broth microdilution; settings: Enterococcus faecalis
E. faecalis GC 4555 = assay: MIC, broth microdilution; settings: Enterococcus faecalis
E. coli GC 3226 = assay: MIC, broth microdilution; settings: Escherichia coli
S. agalactiae GC 4564 = assay: MIC, broth microdilution; settings: Streptococcus agalactiae
E. faecium GC 2243 = assay: MIC, broth microdilution; settings: Enterococcus faecium
S. pyogenes GC 4563 = assay: MIC, broth microdilution; settings: Streptococcus pyogenes
S. aureus GC 1079 = assay: MIC, broth microdilution; settings: Staphylococcus aureus
E. coli GC 2271 = assay: MIC, broth microdilution; settings: Escherichia coli
c. albicans GC 3066 = assay: MIC, broth microdilution
E. coli GC 2236 = assay: MIC, broth microdilution; settings: Escherichia coli
S. aureus GC 6469 = assay: MIC, broth microdilution; settings: Staphylococcus aureus

CC(C)COC(=O)N(CC(=O)Nc1cc(N(C)C)c2c(c1O)C(=O)C1=C(O)[C@]3(O)C(=O)C(C(N)=O)=C(O)[C@@H](N(C)C)[C@@H]3C[C@@H]1C2)C(C)(C)C [Example 59, isobutyl 2-{[(5aR,6aS,7S,10aS)-9-(aminocarbonyl)-4,7-bis(dimethylamino)-1,8,10a,11-tetrahydroxy-10,12-dioxo-5,5a,6,6a,7,10,10a,12-octahydrotetracen-2-yl]amino}-2-oxoethyl(tert-butyl)carbamate]
>64 UG/ML: MINIMAL INHIBITORY CONCENTRATION MIC (c. albicans GC 3066; Human Serum) | MINIMAL INHIBITORY CONCENTRATION MIC (c. albicans GC 3066; Mouse Serum)
2 to 4 µg/mL: MIC (Staph.; read-out: Minimum inhibitory concentration (MIC), Staph (Human Serum))
4 to 8 µg/mL: MIC (Staph.; MRSA, read-out: Range of MIC, Staph (Water)) | MIC (Staph.; read-out: Minimum inhibitory concentration (MIC), Staph (Water))
4 µg/mL: MIC (Staph.; MRSA, read-out: Range of MIC, Staph (Mouse Serum)) | MIC (E. faecium GC 4556; GC4556, read-out: MINIMAL INHIBITORY CONCENTRATION MIC, Human Serum) | MIC (E. faecium GC 4556; GC4556, read-out: MINIMAL INHIBITORY CONCENTRATION MIC, Mouse Serum) | MIC (E. faecium GC 4556; GC4556, read-out: MINIMAL INHIBITORY CONCENTRATION MIC, Water) | MIC (S. aureus GC 6335; GC6335, read-out: MINIMAL INHIBITORY CONCENTRATION MIC, Human Serum) | MIC (S. aureus GC 6335; GC6335, read-out: MINIMAL INHIBITORY CONCENTRATION MIC, Mouse Serum) | MIC (S. aureus GC 6335; GC6335, read-out: MINIMAL INHIBITORY CONCENTRATION MIC, Water) | MIC (E. faecalis GC 2265; GC2265, read-out: MINIMAL INHIBITORY CONCENTRATION MIC, Human Serum) | MIC (E. faecalis GC 2265; GC2265, read-out: MINIMAL INHIBITORY CONCENTRATION MIC, Mouse Serum) | MIC (E. faecalis GC 2265; GC2265, read-out: MINIMAL INHIBITORY CONCENTRATION MIC, Water) | MIC (E. faecalis GC 4555; GC4555, read-out: MINIMAL INHIBITORY CONCENTRATION MIC, Human Serum) | MIC (E. faecalis GC 4555; GC4555, read-out: MINIMAL INHIBITORY CONCENTRATION MIC, Mouse Serum) | MIC (E. faecalis GC 4555; GC4555, read-out: MINIMAL INHIBITORY CONCENTRATION MIC, Water) | MIC (E. faecium GC 2243; GC2243, read-out: MINIMAL INHIBITORY CONCENTRATION MIC, Mouse Serum) | MIC (E. faecium GC 2243; GC2243, read-out: MINIMAL INHIBITORY CONCENTRATION MIC, Water) | MIC (S. pyogenes GC 4563; GC4563, read-out: MINIMAL INHIBITORY CONCENTRATION MIC, Human Serum) | MIC (S. pyogenes GC 4563; GC4563, read-out: MINIMAL INHIBITORY CONCENTRATION MIC, Mouse Serum) | MIC (S. pyogenes GC 4563; GC4563, read-out: MINIMAL INHIBITORY CONCENTRATION MIC, Water) | MIC (S. aureus GC 1079; GC1079, read-out: MINIMAL INHIBITORY CONCENTRATION MIC, Mouse Serum) | MIC (S. aureus GC 6469; GC6469, read-out: MINIMAL INHIBITORY CONCENTRATION MIC, Human Serum) | MIC (S. aureus GC 6469; GC6469, read-out: MINIMAL INHIBITORY CONCENTRATION MIC, Mouse Serum) | MIC (S. aureus GC 6469; GC6469, read-out: MINIMAL INHIBITORY CONCENTRATION MIC, Water)
> 64 µg/mL: MIC (E. coli GC 2270; GC2270, read-out: MINIMAL INHIBITORY CONCENTRATION MIC, Human Serum) | MIC (E. coli GC 2270; GC2270, read-out: MINIMAL INHIBITORY CONCENTRATION MIC, Mouse Serum) | MIC (E. coli GC 2270; GC2270, read-out: MINIMAL INHIBITORY CONCENTRATION MIC, Water) | MIC (S. typhimurium GC 2172; read-out: MINIMAL INHIBITORY CONCENTRATION MIC, Human Serum) | MIC (S. typhimurium GC 2172; read-out: MINIMAL INHIBITORY CONCENTRATION MIC, Mouse Serum) | MIC (S. typhimurium GC 2172; read-out: MINIMAL INHIBITORY CONCENTRATION MIC, Water) | MIC (E. coli GC 2233; GC2233, read-out: MINIMAL INHIBITORY CONCENTRATION MIC, Human Serum) | MIC (E. coli GC 2233; GC2233, read-out: MINIMAL INHIBITORY CONCENTRATION MIC, Mouse Serum) | MIC (E. coli GC 2233; GC2233, read-out: MINIMAL INHIBITORY CONCENTRATION MIC, Water) | MIC (E. coli; read-out: Minimum inhibitory concentration (MIC), E. coli (Human Serum)) | MIC (E. coli; read-out: Minimum inhibitory concentration (MIC), E. coli (water)) | MIC (E. coli; read-out: Range of MIC, E. coli (Water)) | MIC (E. coli GC 2235; GC2235, read-out: MINIMAL INHIBITORY CONCENTRATION MIC, Human Serum) | MIC (E. coli GC 2235; GC2235, read-out: MINIMAL INHIBITORY CONCENTRATION MIC, Mouse Serum) | MIC (E. coli GC 2235; GC2235, read-out: MINIMAL INHIBITORY CONCENTRATION MIC, Water) | MIC (E. coli GC 1073; GC1073, read-out: MINIMAL INHIBITORY CONCENTRATION MIC, Human Serum) | MIC (E. coli GC 1073; GC1073, read-out: MINIMAL INHIBITORY CONCENTRATION MIC, Mouse Serum) | MIC (E. coli GC 1073; GC1073, read-out: MINIMAL INHIBITORY CONCENTRATION MIC, Water) | MIC (E. coli GC 3226; GC3226, read-out: MINIMAL INHIBITORY CONCENTRATION MIC, Human Serum) | MIC (E. coli GC 3226; GC3226, read-out: MINIMAL INHIBITORY CONCENTRATION MIC, Mouse Serum) | MIC (E. coli GC 3226; GC3226, read-out: MINIMAL INHIBITORY CONCENTRATION MIC, Water) | MIC (E. coli GC 2271; GC2271, read-out: MINIMAL INHIBITORY CONCENTRATION MIC, Human Serum) | MIC (E. coli GC 2271; GC2271, read-out: MINIMAL INHIBITORY CONCENTRATION MIC, Mouse Serum) | MIC (E. coli GC 2271; GC2271, read-out: MINIMAL INHIBITORY CONCENTRATION MIC, Water) | MIC (c. albicans GC 3066; Candida albicans, GC3066, read-out: MINIMAL INHIBITORY CONCENTRATION MIC) | MIC (E. coli GC 2236; GC2236, read-out: MINIMAL INHIBITORY CONCENTRATION MIC, Human Serum) | MIC (E. coli GC 2236; GC2236, read-out: MINIMAL INHIBITORY CONCENTRATION MIC, Mouse Serum) | MIC (E. coli GC 2236; GC2236, read-out: MINIMAL INHIBITORY CONCENTRATION MIC, Water)
2 µg/mL: MIC (S. aureus GC 1079; GC1079, read-out: MINIMAL INHIBITORY CONCENTRATION MIC, Human Serum)
8 µg/mL: MIC (S. agalactiae GC 4564; GC4564, read-out: MINIMAL INHIBITORY CONCENTRATION MIC, Human Serum) | MIC (S. agalactiae GC 4564; GC4564, read-out: MINIMAL INHIBITORY CONCENTRATION MIC, Mouse Serum) | MIC (S. agalactiae GC 4564; GC4564, read-out: MINIMAL INHIBITORY CONCENTRATION MIC, Water) | MIC (E. faecium GC 2243; GC2243, read-out: MINIMAL INHIBITORY CONCENTRATION MIC, Human Serum) | MIC (S. aureus GC 1079; GC1079, read-out: MINIMAL INHIBITORY CONCENTRATION MIC, Water)
